In paper PMC13095408, “DBeQ derivative targets vacuolar protein sorting 4 functions in cancer cells and suppresses tumor growth in mice” (The Journal of Pharmacology and Experimental Therapeutics, 2025):

Key:
[1] = target: T1, VPS4B (Homo sapiens, UniProt O75351); assay: VPS4B ATPase activity, EnzChek Phosphate assay; type: biochemical; design: His tag (pET28a vector-encoded) (N); made in house; host or cells: Escherichia coli BL21(DE3)
T1 sequence (O75351 1-444): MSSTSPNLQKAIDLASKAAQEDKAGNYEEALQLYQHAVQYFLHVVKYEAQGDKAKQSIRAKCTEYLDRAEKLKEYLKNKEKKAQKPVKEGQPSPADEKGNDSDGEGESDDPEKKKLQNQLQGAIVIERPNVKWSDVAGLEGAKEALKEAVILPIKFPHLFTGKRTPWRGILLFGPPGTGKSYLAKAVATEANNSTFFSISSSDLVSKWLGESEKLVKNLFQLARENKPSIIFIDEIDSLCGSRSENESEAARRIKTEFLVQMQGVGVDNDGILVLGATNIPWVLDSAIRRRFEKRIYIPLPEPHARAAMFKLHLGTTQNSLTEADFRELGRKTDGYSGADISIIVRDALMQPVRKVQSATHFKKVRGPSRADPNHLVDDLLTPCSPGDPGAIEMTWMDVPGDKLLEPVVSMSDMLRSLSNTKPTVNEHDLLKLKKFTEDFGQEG
Experimental: (§1) VPS4B and VCP ATPase activities were measured using the EnzChek Phosphate assay for the quantification of released phosphate. Assay buffers were based on literature precedents ([Cupido et al, 2019], [2021]) as follows: VPS4B buffer (20 mM HEPES-KOH, pH 7.4, 25 mM KOAc, 2 mM MgCl2, 5 mM (NH4)2SO4, 0.5 mM CaCl2, 2.5 mM DTT, 0.1 mg/mL BSA, 0.005% v/v Triton X-100), VCP buffer (20 mM HEPES-NaOH, pH 7.4, 20 mM NaCl, 10 mM MgCl2, 5 mM (NH4)2SO4, 0.5 mM CaCl2, 2.5 mM DTT, 0.1 mg/mL BSA, 0.005% v/v Triton X-100). In black clear-bottom 384-well plates, 22.5 μL of 5% DMSO or 40× test compounds diluted in the respective assay buffer was added to each well. ATPases were diluted to 1 μM in the respective buffers containing 2× EnzChek Phosphate assay coupling reagents of 400 μM MESG and 2 U of PNP, then 25 μL was added to each well. Plates were mixed at 1000 rpm for 30 minutes at RT while being protected from light. The reaction was initiated by adding 2.5 μL of 20 mM MgATP or water followed by mixing at 1200 rpm for 30 seconds at RT. Plates were measured at 360 nm using a CLARIOstar plate reader (BMG LABTECH) for 20 minutes at 37 °C. ATPase activity was calculated as the amount of phosphate released over a 5-minute interval under linear initial velocity conditions. The remaining ATPase activity was calculated by normalizing compound-treated activity values to the DMSO control. IC50 was calculated by fitting normalized values to a sigmoidal dose-response curve with Hill slope = −1 using Graph Pad Prism 10.0.
(§2) To identify VPS4i, we developed enzyme- and cell-based VPS4 functional assays to serve as VPS4i-screening platforms. For the enzyme-based assay, we used the colorimetric EnzChek Phosphate assay that detects free phosphate with the advantage of continuous measurement of ATP hydrolysis over time. […] Due to the high sequence and structural similarity of AAA-ATPases, we also established a VCP ATPase assay to evaluate hit selectivity. […] For the cell-based assay, our approach was based on how VPS4 inhibition causes the accumulation of ESCRT-III ([Babst et al, 1998]; [Katoh et al, 2003]). We used an N-terminal GFP-tagged CHMP4B reporter system because it is the most abundant ESCRT-III subunit ([Katoh et al, 2004]; [Teis et al, 2008]). Our aim was to test compounds under short-term serum and amino acid starvation to stimulate ESCRT activity for easier detection of inhibitors ([Takahashi et al, 2018], [2019]). […] Overall, we established 2 systems for VPS4i screening, a VPS4B ATPase activity assay and a GFP-CHMP4B accumulation cell-based assay.

[2] = target: T2, recombinant human VCP (Rattus norvegicus, UniProt P46462); assay: VCP ATPase activity, EnzChek Phosphate assay; type: biochemical
T2 construct: His (N); host or cells: Escherichia coli BL21(DE3)
Experimental: as §1, §2

[3] = system: GFP-CHMP4B-expressing U2OS cells; assay: GFP-CHMP4B accumulation cell-based assay (high-content microscopy)
Experimental: Plates were then scanned using the 20× objective for 1 hour with ≥100 cells/well across 6 fields/well. […] For all other assays, the cells were cultured overnight in black glass-bottom 96-well plates (Cellvis; P96-1.5H-N) then stained, rinsed, and treated with SM containing the indicated compounds (0.1% DMSO or 0.1% DMSO/0.1% ethanol [vehicle] final). Plates were scanned using the 20× NA .70 objective at the indicated intervals with ≥ 300 cells/well across 3 fields/well. […]

[4] = system: U2OS cells; assay: Immunoblot analysis of VPS4- and VCP-mediated pathways (autophagy, ER stress, ERAD); type: cell-based; settings: 0.6 μM CB-5083, 1 μM 4-107, complete media
Experimental: Whole-cell lysates were prepared in radio-immunoprecipitation buffer (25 mM Tris-HCl, pH 8.0, 150 mM NaCl, 1 mM EDTA, 1% v/v IGEPAL CA-630, 0.5% w/v sodium deoxycholate, and 1% v/v SDS) containing protease (1:250) and phosphatase inhibitor cocktails (1:100) then resolved via SDS-PAGE and probed with the indicated antibodies. Signals were acquired with the Odyssey CLx (LI-COR) for fluorescence or Odyssey XF (LI-COR) for chemiluminescence detection and visualized in Image Studio version 6 (LI-COR).
VPS4 is essential for autophagy and loss of VPS4 function inhibits autophagic flux ([Takahashi et al, 2018]; [Zhen et al, 2019]). Meanwhile, VCP is required for endoplasmic reticulum-associated degradation (ERAD; [Rabinovich et al, 2002]) where VCP inhibition results in the accumulation of ubiquitinated proteins and induction of ER stress ([Weihl et al, 2006]; [Bastola et al, 2016]).

[5] = remaining ATPase activity, screened at 5 μM, mean ± SD, Table 1
[6] = screened at 5 µM, mean ± S.D., Supplemental Table 2
[7] = remaining ATPase activity, screened at 5 μM, mean ± SD, Table 2
[8] = screened at 1 µM, mean ± S.D., Supplemental Table 2
[9] = screened at 1 μM, starvation media, 1 hour, foci intensity per cell normalized to 4-107, mean ± SD, Table 1

T2 sequence (P46462 2-806 limits assumed): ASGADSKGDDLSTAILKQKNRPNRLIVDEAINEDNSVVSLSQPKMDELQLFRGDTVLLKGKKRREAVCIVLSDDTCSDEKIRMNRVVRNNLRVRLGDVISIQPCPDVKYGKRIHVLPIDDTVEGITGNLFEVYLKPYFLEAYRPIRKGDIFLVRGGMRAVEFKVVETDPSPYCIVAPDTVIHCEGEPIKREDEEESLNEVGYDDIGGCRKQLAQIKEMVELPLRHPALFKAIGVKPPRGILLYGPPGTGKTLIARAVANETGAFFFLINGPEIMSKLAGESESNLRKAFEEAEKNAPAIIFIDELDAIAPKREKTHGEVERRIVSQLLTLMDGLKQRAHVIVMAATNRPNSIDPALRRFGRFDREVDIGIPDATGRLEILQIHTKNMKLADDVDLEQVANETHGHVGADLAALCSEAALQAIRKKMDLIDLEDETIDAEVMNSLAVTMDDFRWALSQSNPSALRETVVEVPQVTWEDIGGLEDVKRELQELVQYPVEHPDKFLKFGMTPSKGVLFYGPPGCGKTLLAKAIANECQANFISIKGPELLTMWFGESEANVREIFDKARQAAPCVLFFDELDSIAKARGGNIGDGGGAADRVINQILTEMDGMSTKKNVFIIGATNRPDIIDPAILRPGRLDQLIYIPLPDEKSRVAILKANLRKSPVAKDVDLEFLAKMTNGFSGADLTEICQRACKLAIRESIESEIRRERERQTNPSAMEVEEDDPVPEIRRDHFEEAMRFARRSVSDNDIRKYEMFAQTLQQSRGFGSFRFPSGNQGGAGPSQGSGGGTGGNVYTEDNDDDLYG

Row | SMILES | VPS4B ATPase (% DMSO) [1, 5] [% DMSO] | VPS4B ATPase (% DMSO) [1, 6] [% DMSO] | VCP ATPase (% DMSO) [2, 7] [% DMSO] | VCP ATPase (% DMSO) [2, 6] [% DMSO] | GFP-CHMP4B (% 4-107) [3, 8] [% 4-107] | GFP-CHMP4B (% 4-107) [3, 9] [% 4-107] | accumulation of K48-linked polyubiquitinated proteins [4] | ER stress (HSPA5, ATF4) ([4]; 5 μM DBeQ) | autophagy (SQSTM1, LC3-II) ([4]; 5 μM DBeQ)
1 | COc1cccc2c(NCc3ccccc3)nc(NCc3cccc(F)c3)nc12 [Compound 20] | 35.22 ± 0.66 | 35.22 ± 0.66 | 80.50 ± 0.57 | 80.50 ± 0.40 | 99.48 ± 22.3 | 99.48 ± 22.30 |  |  | 
2 | COc1ccc2c(NCc3ccccc3)nc(NCc3ccccc3)nc2c1 [Compound 6] | 35.59 ± 2.28 | 35.59 ± 2.28 |  | 86.15 ± 0.65 | 33.47 ± 15.62 | 33.47 ± 15.62 |  |  | 
3 | COc1cccc2c(NCc3ccccc3)nc(NCc3cccc4ccccc34)nc12 [Compound 13] | 28.27 ± 0.04 | 28.27 ± 0.04 |  | 98.67 ± 2.86 | 36.79 ± 0.89 | 36.79 ± 0.89 |  |  | 
4 | COc1cccc2c(NCc3ccc(F)cc3)nc(NCc3ccc(F)cc3)nc12 [Compound 22] | 46.38 ± 2.33 | 46.38 ± 2.33 |  | 99.33 ± 2.70 | 51.23 ± 26.20 | 51.23 ± 26.20 |  |  | 
5 | Nc1cccc2c(NCc3ccccc3)nc(NCc3ccccc3)nc12 [Compound 7-31] |  |  |  | 69.70 ± 8.05 | 48.41 ± 2.74 |  |  |  | 
6 | COc1cccc(CNc2nc(NCc3ccccc3)c3cccc(OC)c3n2)c1 [Compound 5-27-2] |  | 51.50 ± 0.83 |  | 100.03 ± 0.81 | 71.11 ± 0.37 |  |  |  | 
7 | COc1ccc(CNc2nc(NCc3ccccc3)c3cccc(OC)c3n2)cc1 [Compound 19] | 29.98 ± 0.49 | 29.98 ± 0.49 | 107.28 ± 2.66 | 107.28 ± 1.88 | 86.61 ± 22.39 | 86.61 ± 22.39 |  |  | 
8 | Cc1cc2c(C(N)=O)cccc2n1-c1nc2c(c(NCc3ccccc3)n1)COCC2 [CB-5083] |  |  |  |  |  |  | accumulation of K48-linked polyubiquitinated proteins | strongly induced ER stress | reduction in SQSTM1, indicating the stimulation of autophagy
9 | COc1cccc2c(NCc3ccccc3)nc(NCc3ccc(F)cc3)nc12 [Compound 5-151] |  | 47.66 ± 0.34 |  | 93.82 ± 0.90 | 73.02 ± 27.67 |  |  |  | 
10 | COc1cccc2c(NCc3ccccc3)nc(NCc3ccc(C#N)cc3)nc12 [Compound 7-05] |  | 54.50 ± 2.02 |  | 95.43 ± 0.86 | 42.59 ± 0.15 |  |  |  | 
11 | COc1cccc2c(NCc3ccccc3)nc(NCc3ccc(C)cc3)nc12 [Compound 18] | 27.55 ± 0.01 | 27.55 ± 0.01 | 83.40 ± 4.64 | 83.40 ± 3.28 | 48.09 ± 1.26 | 48.09 ± 1.26 |  |  | 
12 | COc1cccc2c(NCc3ccccc3)nc(NCc3cccc(C#N)c3)nc12 [Compound 17] | 55.59 ± 2.13 | 55.59 ± 2.13 | 91.83 ± 5.36 | 91.83 ± 3.79 | 82.61 ± 11.90 | 82.61 ± 11.90 |  |  | 
13 | COc1ccc2nc(NCc3ccccc3)nc(NCc3ccccc3)c2c1 [Compound 7] | 43.86 ± 1.20 | 43.86 ± 1.20 |  |  | 8.92 ± 2.87 | 8.92 ± 2.87 |  |  | 
14 | COc1ccc(CNc2nc(NCc3ccc(OC)cc3)c3cccc(OC)c3n2)cc1 [Compound 21] | 33.98 ± 3.50 | 33.98 ± 3.50 |  | 100.96 ± 0.28 | 37.69 ± 13.03 | 37.69 ± 13.03 |  |  | 
15 | COC(=O)c1ccc2c(ccn2-c2nc(NCc3ccccc3)c3cccc(OC)c3n2)c1 [Compound 5-41-iii] |  | 80.70 ± 2.02 |  |  | 2.82 ± 1.33 |  |  |  | 
16 | COc1ncnc2c1ccn2-c1nc(NCCc2cccnc2)c2cccc(OC)c2n1 [Compound 5-65] |  | 89.36 ± 2.84 |  |  | 1.69 ± 0.46 |  |  |  | 
